Several values for one entry are separate records, joined by “and”; a condition that tells them apart may be missing. Equal entries are not always repeated. Where two headings read alike, the source gives them in different places.
Legend:
BT145 cells = experiment: QST + IR sulforhodamine B cytotoxicity assay; type: cell-based, human; details: replicates
Protocol: (§1) There is preclinical evidence that HDACis may be effective in enhancing the sensitivity of tumor cells to IR therapy ([24], [28]–[31]). We hypothesized that the accumulation of DNA damage induced by QST, in combination with IR, may synergistically reduce GSC viability. To examine this hypothesis, we treated 2 cell lines (BT145 and GB126) with increasing nanomolar doses of QST (10–1000 nM) and increasing doses of IR (2–4 Gy) (Figure 4, A and B). […] We then analyzed our combinatorial dose-response cell viability data using SynergyFinder, an application that assigns synergy scores using various major reference models ([32]).
(§2) GSCs were seeded in laminin-coated tissue culture–treated 96-well plates (clear bottom, white plate; Corning) at a density of 1000–5000 cells per well (cell line dependent) in GSC media. U87-MG were seeded using their normal growth conditions without laminin (10% bovine calf serum in DMEM). All cells were incubated at 37°C and allowed to adhere overnight. The next day, cells were treated with incremental concentrations of QST (Selleckchem; 0, 10, 25, 50, 100, 250, 500, and 1000 nM) diluted in media. Cells treated without QST were treated with DMSO diluted in media. Following treatment with QST, cells were grown for 3 to 5 days (cell line dependent), and cell viability was measured and quantified. All cell viability measurements were performed using the CellTiter-Glo luminescent cell viability assay (Promega) following the manufacturer’s instructions. For the sulforhodamine B colorimetric assay for cytotoxicity, the protocol was performed as described elsewhere ([33]). All cell viability results represent the mean of at least 3 biological replicates, each containing 3 technical replicates.

GB126 cells = experiment: QST + IR sulforhodamine B cytotoxicity assay; type: cell-based, human; details: replicates
Protocol: as §1, §2

[1] = Total and unbound QST in plasma and normal brain of non-tumor-bearing mice (equilibrium dialysis, LC-MS/MS); type: in vivo, athymic nude mice
Protocol: Insufficient drug exposure in the brain is a major hurdle in the treatment of brain tumors. […] On the last treatment day, blood and intact brains were harvested 2 hours after dosing with QST (Figure 6E). […] Each brain hemisphere was processed separately to perform matched PK and PD analyses from the same animal. […] For PD analyses, we homogenized entire hemispheres to obtain whole-tissue protein lysates from each mouse and assessed changes in histone H3 acetylation levels using immunoblotting.
Our study therefore emphasizes the importance of implementing a PK-PD–guided approach when evaluating or developing new drugs for GBM. Although PK analyses are now commonly performed in preclinical trials for a variety of different brain tumors, these studies typically measure only the total brain-to-plasma concentration ratio as a measure of drug-brain penetration ([74]–[76]). […] Therefore, we employed an equilibrium dialysis method combined with LC-MS/MS analysis to measure the unbound brain-to-plasma concentration, which represents the pharmacologically active fraction of a drug. A crucial finding in our study was the species-specific differences in QST stability. […] A recent study reported that hydroxamic acids such as QST are common substrates of a family of esterases (carboxylesterases) that are abundantly present in rodent plasma but absent in human plasma ([34], [78]). We confirmed that the addition of BNPP, a specific inhibitor of carboxylesterases, stabilized QST in mouse plasma. Our results therefore highlight a large discrepancy in the metabolic stability between rodent and human species. This is an important consideration for translating preclinical studies to the clinic because such differences may hinder further clinical development of promising drug candidates. Our data will thereby serve as a valuable resource and note of caution for future preclinical studies employing QST or similar drugs with species-specific stability.
QST concentrations in specimens were measured using reverse-phase LC on the AB SCIEX QTRAP6500+ LC-MS/MS system by operating electrospray in the positive ion mode. For liquid chromatographic separation, gradient elution was performed using a Phenomenex Kinetex F5 100 Å column (100 × 2.1 mm, 2.6 μm). The initial composition of the mobile phase was 70% phase A (0.1% formic acid in water) and 30% phase B (0.1% formic acid in 1:1 acetonitrile/methanol) with a 0.35 mL/min flow rate. Gradient elution was achieved as follows: mobile phase (B) was maintained at 30% from 0 to 0.3 minutes, increased to 95% from 0.3 to 0.8 minutes, maintained at 95% from 0.8 to 2.5 minutes, and decreased to 30% from 2.5 to 2.8 minutes. The total run time was 3.5 minutes. The internal standard used in this study was D8-infigratinib. The retention times for QST and D8-infigratinib were 1.6 and 1.8 minutes, respectively. Mass-to-charge ratio transitions were as follows: 395.20 → 144.00 (QST) and 568.08 → 321.00 (D8-infigratinib). LC-MS/MS analysis was performed using an Analyst 1.7 Chromatographic Data System. See Supplemental Methods for detailed PK experiments. […]
vortex-mixed for 10 s and centrifuged at 12000 g at 4 °C for 10 min. A 100-µL aliquot of the supernatant was transferred to an autosampler vial, and 5 µL was injected into the LC-MS/MS system for analysis. Whenever necessary, appropriate dilutions were made to accommodate the analysis of small volume samples.
Brain and Brain Tumor Sample Preparation
Normal brain and brain tumor tissue homogenates were prepared by 1:4 (mass/volume) ratio with PBS. Samples were homogenized under 6.00 m/s speed for 40 seconds with 3 cycles by Bead Ruptor Elite homogenizer (Omni International). Plasma was used as a surrogate matrix for brain/tumor homogenate. Brain homogenate samples from in vivo studies were prepared as described for plasma samples. Analyte and IS were extracted by protein precipitation with methanol containing IS. After centrifugation at 12000 rpm for 10 minutes at 4 °C, 5 µL of […]

[2] = Quisinostat log[nm] 1, 0 Gy, control 0 Gy = 1
[3] = Quisinostat log[nm] 1.39794, 0 Gy
[4] = Quisinostat log[nm] 1.39794, 2 Gy
[5] = Quisinostat log[nm] 1.39794, 4 Gy
[6] = Quisinostat log[nm] 1.69897, 0 Gy
[7] = Quisinostat log[nm] 1.69897, 2 Gy
[8] = Quisinostat log[nm] 1.69897, 4 Gy
[9] = normal mice, individual mice, n=6

Cn1cc(CNCC2CCN(c3ncc(C(=O)NO)cn3)CC2)c2ccccc21 [QST, quisinostat]
SRB assay, relative signal (BT145 cells; [2]): 0.6967 and 0.6385 and 0.6781 | SRB assay, relative signal (BT145 cells; Quisinostat log[nm] 1, 2 Gy): 0.3422 and 0.2636 and 0.3938 | SRB assay, relative signal (BT145 cells; Quisinostat log[nm] 1, 4 Gy): 0.2576 and 0.2273 and 0.1797 | SRB assay, relative signal (BT145 cells; [3]): 0.5611 and 0.5715 and 0.6072 | SRB assay, relative signal (BT145 cells; [4]): 0.3016 and 0.237 and 0.3379 | SRB assay, relative signal (BT145 cells; [5]): 0.251 and 0.1999 and 0.186 | SRB assay, relative signal (BT145 cells; [6]): 0.3909 and 0.4995 and 0.4801 | SRB assay, relative signal (BT145 cells; [7]): 0.2862 and 0.2318 and 0.3442 | SRB assay, relative signal (BT145 cells; [8]): 0.2294 and 0.2058 and 0.1789 | SRB assay, relative signal (BT145 cells; Quisinostat log[nm] 2, 0 Gy): 0.4525 and 0.4659 and 0.3488 | SRB assay, relative signal (BT145 cells; Quisinostat log[nm] 2, 2 Gy): 0.304 and 0.2255 and 0.2864 | SRB assay, relative signal (BT145 cells; Quisinostat log[nm] 2, 4 Gy): 0.2104 and 0.1978 and 0.1926 | SRB assay, relative signal (GB126 cells; [2]): 0.6958 and 0.7271 and 0.697 | SRB assay, relative signal (GB126 cells; Quisinostat log[nm] 1, 2 Gy): 0.4678 and 0.5322 and 0.5047 | SRB assay, relative signal (GB126 cells; Quisinostat log[nm] 1, 4 Gy): 0.3918 and 0.337 and 0.3993 | SRB assay, relative signal (GB126 cells; [3]): 0.6332 and 0.6836 and 0.5963 | SRB assay, relative signal (GB126 cells; [4]): 0.4122 and 0.4783 and 0.4726 | SRB assay, relative signal (GB126 cells; [5]): 0.3723 and 0.2821 and 0.3826 | SRB assay, relative signal (GB126 cells; [6]): 0.574 and 0.5854 and 0.5737 | SRB assay, relative signal (GB126 cells; [7]): 0.3752 and 0.4419 and 0.4352 | SRB assay, relative signal (GB126 cells; [8]): 0.3383 and 0.2983 and 0.3763 | SRB assay, relative signal (GB126 cells; Quisinostat log[nm] 2, 0 Gy): 0.4806 and 0.4569 and 0.5515 | SRB assay, relative signal (GB126 cells; Quisinostat log[nm] 2, 2 Gy): 0.3411 and 0.3753 and 0.4318 | SRB assay, relative signal (GB126 cells; Quisinostat log[nm] 2, 4 Gy): 0.3084 and 0.2397 and 0.3383 | mean unbound QST level, fold lower in brain than in plasma ([1]; 10 mg/kg IP MWF 2 weeks, 2 hours after last dose): more than 70 fold | concentration at 2 h ([1]; athymic nude, mouse, brain, intraperitoneal, 10 mg/kg, normal mouse brains, individual mice, n=6, read-out: Total QST, brain): 45.3 nM | concentration at 2 h ([1]; athymic nude, mouse, brain, intraperitoneal, 10 mg/kg, normal mouse brains, individual mice, n=6, read-out: Unbound QST, brain): 1.65 nM | concentration at 2 h ([1]; athymic nude, mouse, brain, ip, 10 mg/kg, normal brain, 10 mg/kg IP MWF 2 weeks, 2 hours after last dose, read-out: unbound drug concentration in the brain): ~1.7 nM | Total QST, plasma [1, 9]: 464.014 nM and 281.833 nM and 297.864 nM and 455.378 nM and 301.853 nM and 226.232 nM | UNBOUND [QST], Plasma [1, 9]: 117.95 nM and 180.33 nM and 119.53 nM and 89.59 nM and 183.75 nM and 111.61 nM | concentration at 2 h ([1]; normal mouse brains, individual mice, n=6, read-out: Total QST, brain): 26.24 nM and 32.91 nM and 41.935 nM and 27.27 nM and 31.45 nM | concentration at 2 h ([1]; normal mouse brains, individual mice, n=6, read-out: Unbound QST, brain): 2.1 nM and 1.36 nM and 1.57 nM and 2.27 nM and 1.31 nM
